Reference: ChEMBL document CHEMBL1212708, “Sialic acid dependence in rotavirus host cell invasion” (Nat Chem Biol, 2009)
One block for each compound: values may come before it. Activity calls are given as the source filed them. The calls are words filed in the database; no cut-off is given here.

Tests used:
Rotavirus [1] = assay: Binding affinity to […] Rotavirus CRW-8 VP8 at 3.5 mM by STD NMR spectrum
Rotavirus [2] = assay: Binding affinity to sialidase-insensitive Rotavirus Wa VP8 at 3.5 mM by STD NMR spectrum
MA104 [3] = assay: Inhibition of Rotavirus Wa VP8-mediated binding to monkey MA104 cells at 10 mM after 1 hr by immunofluorescence assay in presence of sialidase; assay type: cell-based
MA104 [4] = assay: Inhibition of Rotavirus Wa VP8-mediated binding to monkey MA104 cells at 10 mM after 1 hr by immunofluorescence assay; assay type: cell-based
MA104 [5] = assay: Inhibition of Rotavirus Wa VP8-mediated infectivity in monkey MA104 cells at 10 mM after 1 hr by immunofluorescence assay in presence of sialidase; assay type: cell-based
MA104 [6] = assay: Inhibition of Rotavirus CRW-8 VP8-mediated infectivity in monkey MA104 cells at 10 mM after 1 hr by immunofluorescence assay in presence of sialidase; assay type: cell-based
MA104 [7] = assay: Inhibition of Rotavirus CRW-8 VP8-mediated infectivity in monkey MA104 cells at 10 mM after 1 hr by immunofluorescence assay; assay type: cell-based
MA104 [8] = assay: Inhibition of Rotavirus Wa VP8-mediated infectivity in monkey MA104 cells at 10 mM after 1 hr by immunofluorescence assay; assay type: cell-based
MA104 [9] = assay: Inhibition of Rotavirus CRW-8 VP8-mediated binding to monkey MA104 cells at 10 mM after 1 hr by immunofluorescence assay in presence of sialidase; assay type: cell-based
MA104 [10] = assay: Inhibition of Rotavirus CRW-8 VP8-mediated binding to monkey MA104 cells at 10 mM after 1 hr by immunofluorescence assay; assay type: cell-based
Rotavirus [11] = assay: Binding affinity to […] Rotavirus CRW-8 VP8 at 1.2 mM by STD NMR spectrum
Rotavirus [12] = assay: Binding affinity to sialidase-insensitive Rotavirus Wa VP8 protein at 0.46 mM by STD NMR spectral analysis

Activity (Rotavirus [1]): inactive | Activity (Rotavirus [2]): Active
SMILES: CC(=O)N[C@H]1[C@@H](O[C@@H]2[C@H](O[C@]3(C(=O)O)C[C@H](O)[C@@H](NC(C)=O)[C@H]([C@H](O)[C@H](O)CO)O3)[C@@H](O)[C@H](O[C@H]3[C@H](O)[C@@H](O)C(O)O[C@@H]3CO)O[C@@H]2CO)O[C@H](CO)[C@H](O)[C@@H]1O[C@@H]1O[C@H](CO)[C@H](O)[C@H](O)[C@H]1O (some centres not stated)

SMILES: CO[C@]1(C(=O)O)C[C@H](O)[C@@H](NC(C)=O)[C@H]([C@H](O)[C@H](O)CO)O1
inhibition (MA104 [3]): Active | inhibition (MA104 [4]): 45% | inhibition (MA104 [5]): 26% | Activity (MA104 [6]): inactive | inhibition (MA104 [7]): 52% | inhibition (MA104 [8]): inactive | Activity (MA104 [9]): inactive | inhibition (MA104 [10]): 35%

Activity (Rotavirus [11]): Active | Activity (Rotavirus [12]): inactive
SMILES: CC(=O)N[C@H]1[C@@H](O[C@@H]2[C@H](O[C@]3(C(=O)O)C[C@H](O)[C@@H](NC(C)=O)[C@H]([C@H](O)[C@H](O)CO)O3)[C@@H](O)[C@H](O[C@H]3[C@H](O)[C@@H](O)C(O)O[C@@H]3CO)O[C@@H]2CO)O[C@H](CO)[C@H](O)[C@@H]1O[C@@H]1O[C@H](CO)[C@H](O)[C@H](O[C@]2(C(=O)O)C[C@H](O)[C@@H](NC(C)=O)[C@H]([C@H](O)[C@H](O)CO)O2)[C@H]1O (some centres not stated)
